Source: PMC11173508, “Pharmacokinetics and Tissue Distribution of Itampolin A following Intragastric and Intravenous Administration in Rats Using Ultra-High-Performance Liquid Chromatography–Tandem Mass Spectrometry” (Molecules, 2024)
Where two headings read alike, the source gives them in different places.

Key:
[1] = Pharmacokinetic study in rats after intragastric and intravenous administration (UHPLC-MS/MS of plasma); format: in vivo, Sprague–Dawley rats; conditions: for MRT inf: n = 6, read-out: MRT0–∞; for k el: n = 6, read-out: ke (converted); for bioavailability: F = Doseiv × AUCig/(Doseig × AUCiv) × 100%, read-out: absolute bioavailability (F)
Protocol: Sprague–Dawley rats (250 ± 20 g) were supplied from the Experimental Animal Centre of China Medical University (Shenyang, China) and housed under unified conditions. All of the animal experiments were conducted in compliance with the Guidelines for Care and Use of Laboratory Animals of China Medical University and the protocols were approved by the Animal Ethics Committee of the institution (code number: CMU2023205). The rats were raised in a standard environment with a temperature of 24 ± 2 °C, relative humidity of 55 ± 10%, and 12 h light/12 h dark cycles. These rats were acclimatized to the environment for at least one week before the experiment, provided free access to drinking water, and fed during this period. Twenty-four SD rats, which were divided into four groups (six rats per group), received 5 mg/kg itampolin A by intravenous administration or 10, 25, and 50 mg/kg itampolin A by intragastric administration for the pharmacokinetics experiments. Twenty SD rats (five rats for each time point) received 25 mg/kg itampolin A by intragastric administration for the tissue distribution study.
The simple protein precipitation extraction technique using methanol as the precipitating solvent was applied to extract itampolin A and IS from biological samples [23, 24]. The 100 µL of plasma sample, 50 µL of IS working solution, and 200 µL of methanol were added in 500 µL microcentrifuge tubes to precipitate proteins. After vortexing for 1 min, the samples were centrifuged at 12,000 rpm for 10 min to remove the denatured protein. Subsequently, the supernatant was transferred into another tube and evaporated to dryness with a stream of nitrogen at 35 °C. The remains were reconstituted in 100 µL of initial mobile phase, briefly vortexed, and centrifuged at 12,000 rpm for 10 min. Then, 10 µL of the supernatant was transferred to sampling vials for the UHPLC-MS/MS system.
For both intragastric and intravenous administration, itampolin A was dissolved in polyethylene glycol (PEG)-saline (1:3, PEG: 380–420) for the preparation of dosing solutions. Eighteen Sprague–Dawley rats were divided into three groups randomly (six rats each). The rats of each group were weighed, and then given a single dose of 10 mg/kg, 25 mg/kg, and 50 mg/kg itampolin A via intragastric administration, respectively. Blood samples (200 µL) were obtained from orbital vein into heparinized centrifuge tubes at 0.083, 0.25, 0.5, 0.75, 1, 1.5, 2, 3, 4, 6, 8, 12, and 24 h after drug administration.
Six Sprague–Dawley rats were weighed, and then given a single dose of 5 mg/kg of itampolin A via intravenous administration. Blood samples (200 µL) were obtained from orbital vein into heparinized centrifuge tubes at 0.033, 0.083, 0.167, 0.25, 0.5, 0.75, 1, 1.5, 2, 3, 4, 8, and 12 h after drug administration. The blood samples obtained from both intragastric and intravenous administration were immediately separated by centrifugation at 12,000 rpm for 10 min, and then the supernatant plasma was gathered and stored at −20 °C prior to analysis.
The pharmacokinetic parameters were calculated by non-compartmental model using the DAS 3.2.8 software. All data were presented as mean ± SD.

[2] = system: non-small-cell lung cancer; parameters: method as in doi:10.2174/1570179414666170215092631; conditions: cited from earlier work
[3] = Sprague-Dawley, rat, iv, i.v. 5 mg/kg, plasma, mean ± SD, n = 6
[4] = Sprague-Dawley, rat, iv, i.v. 5 mg/kg, plasma, mean ± SD
[5] = Sprague-Dawley, rat, plasma, iv, 5 mg/kg, i.v. 5 mg/kg, mean ± SD, n = 6
[6] = Sprague-Dawley, rat, plasma, po, 10 mg/kg, i.g. low dose 10 mg/kg, mean ± SD, n = 6
[7] = Sprague-Dawley, rat, plasma, po, 25 mg/kg, i.g. mid dose 25 mg/kg, mean ± SD, n = 6
[8] = Sprague-Dawley, rat, plasma, po, 50 mg/kg, i.g. high dose 50 mg/kg, mean ± SD, n = 6
[9] = Sprague-Dawley, rat, po, i.g. high dose 50 mg/kg, plasma, mean ± SD, n = 6
[10] = Sprague-Dawley, rat, po, i.g. high dose 50 mg/kg, plasma, mean ± SD
[11] = Sprague-Dawley, rat, po, i.g. low dose 10 mg/kg, plasma, mean ± SD, n = 6
[12] = Sprague-Dawley, rat, po, i.g. low dose 10 mg/kg, plasma, mean ± SD
[13] = Sprague-Dawley, rat, po, i.g. mid dose 25 mg/kg, plasma, mean ± SD, n = 6
[14] = Sprague-Dawley, rat, po, i.g. mid dose 25 mg/kg, plasma, mean ± SD
[15] = i.g. high dose 50 mg/kg, plasma, mean ± SD, n = 6
[16] = i.g. low dose 10 mg/kg, plasma, mean ± SD, n = 6
[17] = i.g. mid dose 25 mg/kg, plasma, mean ± SD, n = 6
[18] = intragastric 10, 25 and 50 mg/kg

**Q.** Which AUC(0-inf) [1, 3] does the source give for `COc1c(Br)cc(C[C@H](NC(=O)Cc2ccc(OCCCNC(C)=O)cc2)C(=O)NCCc2cc(Br)c(O)c(Br)c2)cc1Br` [itampolin A, Itampolin A] here?
**A.** 2830 ± 110 ng·h/mL

**Q.** What about the AUC(0-t) [1, 3] of the same compound?
**A.** 978 ± 26.2 ng·h/mL

**Q.** What about the Cmax [1, 3] of the same compound?
**A.** 1340 ± 52.2 ng/mL

**Q.** And the clearance [1, 3]?
**A.** 30 mL/min/kg

**Q.** What about the MRT inf [1, 4] of the same compound?
**A.** 4.8 ± 0.3 h

**Q.** What about the Vd ([1]; Sprague-Dawley, rat, iv, i.v. 5 mg/kg, plasma, mean ± SD, n = 6, read-out: Vd) of the same compound?
**A.** 6.6 ± 0.4 L/kg

**Q.** What about the k el [1, 4] of the same compound?
**A.** 7.5e-05 s⁻¹

**Q.** What about the Tmax [1, 5] of the same compound?
**A.** 0.03 h

**Q.** What about the half-life [1, 5] of the same compound?
**A.** 2.6 ± 0.2 h

**Q.** And the bioavailability ([1]; Sprague-Dawley, rat, plasma, oral dose 10 mg/kg vs i.v. 5 mg/kg)?
**A.** 18.8%

**Q.** What about the bioavailability ([1]; Sprague-Dawley, rat, plasma, oral dose 25 mg/kg vs i.v. 5 mg/kg) of the same compound?
**A.** 13.7%

**Q.** And the bioavailability ([1]; Sprague-Dawley, rat, plasma, oral dose 50 mg/kg vs i.v. 5 mg/kg)?
**A.** 11.2%

**Q.** And the Tmax [1, 6]?
**A.** 1.7 ± 0.2 h

**Q.** What about the half-life [1, 6] of the same compound?
**A.** 2.6 ± 0.3 h

**Q.** And the Tmax [1, 7]?
**A.** 1.7 ± 0.2 h

**Q.** And the half-life [1, 7]?
**A.** 2.3 ± 0.2 h

**Q.** What about the Tmax [1, 8] of the same compound?
**A.** 0.9 ± 0.1 h

**Q.** And the half-life [1, 8]?
**A.** 2.1 ± 0.2 h

**Q.** And the half-life ([1]; Sprague-Dawley, rat, plasma, po, 50 mg/kg, intragastric 10, 25 and 50 mg/kg, range over the three doses)?
**A.** 2.1 to 2.6 h

**Q.** What about the Tmax ([1]; Sprague-Dawley, rat, plasma, po, 50 mg/kg, intragastric 10, 25 and 50 mg/kg, summary over the three doses) of the same compound?
**A.** < 1.7 h

**Q.** And the AUC(0-inf) [1, 9]?
**A.** 3190 ± 94.7 ng·h/mL

**Q.** And the AUC(0-t) [1, 9]?
**A.** 2640 ± 44.6 ng·h/mL

**Q.** And the Cmax [1, 9]?
**A.** 807 ± 36.9 ng/mL

**Q.** What about the MRT inf [1, 10] of the same compound?
**A.** 3.7 ± 0.2 h

**Q.** And the k el [1, 10]?
**A.** 9.17e-05 s⁻¹

**Q.** What about the AUC(0-inf) [1, 11] of the same compound?
**A.** 1080 ± 55.8 ng·h/mL

**Q.** What about the AUC(0-t) [1, 11] of the same compound?
**A.** 939 ± 34.9 ng·h/mL

**Q.** And the Cmax [1, 11]?
**A.** 283 ± 20 ng/mL

**Q.** What about the MRT inf [1, 12] of the same compound?
**A.** 4.6 ± 0.5 h

**Q.** And the k el [1, 12]?
**A.** 7.5e-05 s⁻¹

**Q.** What about the AUC(0-inf) [1, 13] of the same compound?
**A.** 1940 ± 116 ng·h/mL

**Q.** What about the AUC(0-t) [1, 13] of the same compound?
**A.** 1540 ± 44.9 ng·h/mL

**Q.** And the Cmax [1, 13]?
**A.** 412 ± 13.7 ng/mL

**Q.** What about the MRT inf [1, 14] of the same compound?
**A.** 4.2 ± 0.3 h

**Q.** And the k el [1, 14]?
**A.** 8.33e-05 s⁻¹

**Q.** What about the CL [1, 15] of the same compound?
**A.** 207 ± 6.7 mL/min/kg

**Q.** And the Vd [1, 15]?
**A.** 44.6 ± 2.8 L/kg

**Q.** What about the CL [1, 16] of the same compound?
**A.** 185 ± 8.3 mL/min/kg

**Q.** And the Vd [1, 16]?
**A.** 42.2 ± 2.9 L/kg

**Q.** And the CL [1, 17]?
**A.** 215 ± 13 mL/min/kg

**Q.** What about the Vd [1, 17] of the same compound?
**A.** 43.9 ± 1.7 L/kg

**Q.** What about the “correlation coefficient of AUC0–t versus dose (dose linearity)” value [1, 18] of the same compound?
**A.** 0.999

**Q.** What about the “correlation coefficient of AUC0–∞ versus dose (dose linearity)” value [1, 18] of the same compound?
**A.** 0.998

**Q.** What about the “correlation coefficient of Cmax versus dose (dose linearity)” value [1, 18] of the same compound?
**A.** 0.981

**Q.** And the “anticancer activity against non-small-cell lung cancer” value [2]?
**A.** significant anticancer activity
